In patent US12577245B2, “Sulfonyl benzamide derivatives as Bcl-2 inhibitors” (ASCENTAGE PHARMA (SUZHOU) CO., LTD., priority 2021, dated 2026) one finds IC50 data, which are given here for 14 compounds.

Assay [1] concerns the target Bcl-2 WT (Homo sapiens, UniProt P10415). Put plainly: Bcl-2 WT inhibition, fluorescence polarization (Flu-BIM tracer) binding assay. To be noted: FP; 20 nM Bcl2, 5 nM Flu-BIM, 1 h incubation; read-out: Bcl-2 w.t. (FP). A general note: In fluorescence polarisation assays a small probe gives low polarisation when free and higher when bound to something large.
Assay [2] has as its system RS4; 11Bcl-2-G101V cells. Put plainly: CellTiter-Glo (CTG) cell viability assay in RS4;11-Bcl-2-G101V cells. The format is cell-based. To be noted: 72 h, 10% FBS, 3 days. The gist of the method:
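Engineered RS4;11 lines carrying Bcl-2 mutants, 10000 cells/well in RPMI-1640 with 10% FBS, exposed to serially diluted compound for 3 days at 37 °C, 5% CO2. Viability read by CellTiter-Glo luminescence, normalized to vehicle; IC50 calculated.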
Background: In ATP-based viability assays light output follows the ATP content of the culture.

In assay [3] the test system is MV-4-11 cells. Briefly: CCK-8 cell viability assay in MV-4-11 cells. The format is cell-based. To be noted: Homo sapiens, MV4-11, 72 h, 10% FBS, 3 days. A digest of the protocol:
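MV-4-11 cells (20000/well) were exposed to serially diluted compound for 3 days at 37 °C. Viability was then measured with CCK-8 (1–4 h, absorbance 450 nm). IC50 was derived from readings normalized to vehicle.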

Molecules are shown by their SMILES.

Sequence of Bcl-2 WT (P10415 whole entry): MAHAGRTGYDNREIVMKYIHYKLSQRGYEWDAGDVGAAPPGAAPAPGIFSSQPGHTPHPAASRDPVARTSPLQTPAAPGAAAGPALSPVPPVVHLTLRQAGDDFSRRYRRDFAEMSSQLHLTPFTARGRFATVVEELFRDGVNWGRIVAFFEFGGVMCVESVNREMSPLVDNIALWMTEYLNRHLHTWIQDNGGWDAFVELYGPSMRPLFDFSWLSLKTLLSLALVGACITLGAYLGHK

On to `CC1(C)CCC(CN2CCN(c3ccc(C(=O)NS(=O)(=O)c4ccc(NC[C@H]5COCCO5)c([N+](=O)[O-])c4)c(Oc4cnc5[nH]ccc5c4)c3)CC2)=C(c2cc(CN3CCN(C4COC4)CC3)cs2)C1` [Example 31, (S)—N-((4-(((1,4-dioxan-2-yl)methyl)amino)-3-nitrophenyl)sulfonyl)-2-((1H-pyrrolo[2,3-b]pyridin-5-yl)oxy)-4-(4-((4,4-dimethyl-2-(4-((4-(oxetan-3-yl)piperazin-1-yl)methyl)thiophen-2-yl)cyclohex-1-en-1-yl)methyl)piperazin-1-yl)benzamide], for which the IC50 amounted to 26 nM in assay [1], 880 nM in assay [2] and 147 nM in assay [3].
As for `CC1(C)CCC(CN2CCN(c3ccc(C(=O)NS(=O)(=O)c4ccc(NC[C@H]5COCCO5)c([N+](=O)[O-])c4)c(Oc4cnc5[nH]ccc5c4)c3)CC2)=C(c2cc(CN3CCC(F)(F)CC3)cs2)C1` [Example 32, (S)—N-((4-(((1,4-dioxan-2-yl)methyl)amino)-3-nitrophenyl)sulfonyl)-2-((1H-pyrrolo[2,3-b]pyridin-5-yl)oxy)-4-(4-((2-(4-((4,4-difluoropiperidin-1-yl)methyl)thiophen-2-yl)-4,4-dimethylcyclohex-1-en-1-yl)methyl)piperazin-1-yl)benzamide], the IC50 in assay [1] was determined as 15.9 nM; in assay [2], 560 nM; in assay [3], 80 nM.
As to `CC1(C)CCC(CN2CCN(c3ccc(C(=O)NS(=O)(=O)c4ccc(NC[C@H]5COCCO5)c([N+](=O)[O-])c4)c(Oc4cnc5[nH]ccc5c4)c3)CC2)=C(c2cc(-c3ccc(F)cc3)cs2)C1` [Example 33, (S)—N-((4-(((1,4-dioxan-2-yl)methyl)amino)-3-nitrophenyl)sulfonyl)-2-((1H-pyrrolo[2,3-b]pyridin-5-yl)oxy)-4-(4-((2-(4-(4-fluorophenyl)thiophen-2-yl)-4,4-dimethylcyclohex-1-en-1-yl)methyl)piperazin-1-yl)benzamide], the IC50 in assay [1] amounted to 23.9 nM; in assay [2] it was 630 nM; in assay [3], 6 nM.
As for `CC1(C)CCC(CN2CCN(c3ccc(C(=O)NS(=O)(=O)c4ccc(NCC5CCOCC5)c([N+](=O)[O-])c4)c(Oc4cnc5[nH]ccc5c4)c3)CC2)=C(c2cc(-c3ccccc3)cs2)C1` [Example 34, 2-((1H-pyrrolo[2,3-b]pyridin-5-yl)oxy)-4-(4-((4,4-dimethyl-2-(4-phenylthiophen-2-yl)cyclohex-1-en-1-yl)methyl)piperazin-1-yl)-N-((3-nitro-4-(((tetrahydro-2H-pyran-4-yl)methyl)amino)phenyl)sulfonyl)benzamide], the IC50 was determined as 41.1 nM in assay [1], 1460 nM in assay [2] and 18 nM in assay [3].
For `CC1(C)CCC(CN2CCN(c3ccc(C(=O)NS(=O)(=O)c4ccc(NCC5CCOCC5)c([N+](=O)[O-])c4)c(Oc4cnc5[nH]ccc5c4)c3)CC2)=C(c2ccsc2-c2ccccc2)C1` [Example 35, 2-((1H-pyrrolo[2,3-b]pyridin-5-yl)oxy)-4-(4-((4,4-dimethyl-2-(2-phenylthiophen-3-yl)cyclohex-1-en-1-yl)methyl)piperazin-1-yl)-N-((3-nitro-4-(((tetrahydro-2H-pyran-4-yl)methyl)amino)phenyl)sulfonyl)benzamide], in that order: 40.4 nM, 6160 nM and 799 nM.
Take `CC1(C)CCC(CN2CCN(c3ccc(C(=O)NS(=O)(=O)c4ccc(NC[C@H]5CC[C@@](C)(O)CC5)c([N+](=O)[O-])c4)c(Oc4cnc5[nH]ccc5c4)c3)CC2)=C(c2cc(-c3ccc(F)cc3)cs2)C1` [Example 36, 2-((1H-pyrrolo[2,3-b]pyridin-5-yl)oxy)-4-(4-((2-(4-(4-fluorophenyl)thiophen-2-yl)-4,4-dimethylcyclohex-1-en-1-yl)methyl)piperazin-1-yl)-N-((4-((((1s,4s)-4-hydroxy-4-methylcyclohexyl)methyl)amino)-3-nitrophenyl)sulfonyl)benzamide]: the IC50 is 36.3 nM in assay [1], 570 nM in assay [2] and 36 nM in assay [3].
As to `CC1(C)CCC(CN2CCN(c3ccc(C(=O)NS(=O)(=O)c4ccc(NC[C@H]5CC[C@](C)(O)CC5)c([N+](=O)[O-])c4)c(Oc4cnc5[nH]ccc5c4)c3)CC2)=C(c2cc(-c3ccc(F)cc3)cs2)C1` [Example 37, 2-((1H-pyrrolo[2,3-b]pyridin-5-yl)oxy)-4-(4-((2-(4-(4-fluorophenyl)thiophen-2-yl)-4,4-dimethylcyclohex-1-en-1-yl)methyl)piperazin-1-yl)-N-((4-((((1r,4r)-4-hydroxy-4-methylcyclohexyl)methyl)amino)-3-nitrophenyl)sulfonyl)benzamide], the IC50 worked out at 20.5 nM in assay [1], 290 nM in assay [2] and 11 nM in assay [3].
On the same counts, the results for `CC1(C)CCC(CN2CCN(c3ccc(C(=O)NS(=O)(=O)c4ccc(NC[C@H]5COCCO5)c([N+](=O)[O-])c4)c(Oc4cnc5[nH]ccc5c4)c3)CC2)=C(c2cc(-c3ccc(Cl)cc3)cs2)C1` [Example 38, (S)—N-((4-(((1,4-dioxan-2-yl)methyl)amino)-3-nitrophenyl)sulfonyl)-2-((1H-pyrrolo[2,3-b]pyridin-5-yl)oxy)-4-(4-((2-(4-(4-chlorophenyl)thiophen-2-yl)-4,4-dimethylcyclohex-1-en-1-yl)methyl)piperazin-1-yl)benzamide] are 20.2 nM, 1640 nM and 28 nM.
For `CC(C)c1ccccc1-c1csc(C2=C(CN3CCN(c4ccc(C(=O)NS(=O)(=O)c5ccc(NC[C@H]6COCCO6)c([N+](=O)[O-])c5)c(Oc5cnc6[nH]ccc6c5)c4)CC3)CCC(C)(C)C2)c1` [Example 39, (S)—N-((4-(((1,4-dioxan-2-yl)methyl)amino)-3-nitrophenyl)sulfonyl)-2-((1H-pyrrolo[2,3-b]pyridin-5-yl)oxy)-4-(4-((2-(4-(2-isopropylphenyl)thiophen-2-yl)-4,4-dimethylcyclohex-1-en-1-yl)methyl)piperazin-1-yl)benzamide], in that order: 31.6 nM, 2310 nM and 260 nM.
For `CC1(C)CCC(CN2CCN(c3ccc(C(=O)NS(=O)(=O)c4ccc(NC[C@H]5COCCO5)c([N+](=O)[O-])c4)c(Oc4cnc5[nH]ccc5c4)c3)CC2)=C(c2cc(-c3ccc(C(F)(F)F)cc3)cs2)C1` [Example 40, (S)—N-((4-(((1,4-dioxan-2-yl)methyl)amino)-3-nitrophenyl)sulfonyl)-2-((1H-pyrrolo[2,3-b]pyridin-5-yl)oxy)-4-(4-((4,4-dimethyl-2-(4-(4-(trifluoromethyl)phenyl)thiophen-2-yl)cyclohex-1-en-1-yl)methyl)piperazin-1-yl)benzamide], in that order: 40.2 nM, 3550 nM and 45 nM.
Take `CC1(C)CCC(CN2CCN(c3ccc(C(=O)NS(=O)(=O)c4ccc(NC[C@H]5CC[C@](C)(O)CC5)c([N+](=O)[O-])c4)c(Oc4cnc5[nH]ccc5c4)c3)CC2)=C(c2cc(-c3ccc(C(F)(F)F)cc3)cs2)C1` [Example 41, 2-((1H-pyrrolo[2,3-b]pyridin-5-yl)oxy)-4-(4-((4,4-dimethyl-2-(4-(4-(trifluoromethyl)phenyl)thiophen-2-yl)cyclohex-1-en-1-yl)methyl)piperazin-1-yl)-N-((4-((((1r,4r)-4-hydroxy-4-methylcyclohexyl)methyl)amino)-3-nitrophenyl)sulfonyl)benzamide]: the figures for the IC50 in assay [1], in assay [2] and in assay [3] were 44 nM, 3230 nM and 50 nM, respectively.
As to `CC1(C)CCC(CN2CCN(c3ccc(C(=O)NS(=O)(=O)c4ccc(NC[C@H]5COCCO5)c([N+](=O)[O-])c4)c(Oc4cnc5[nH]ccc5c4)c3)CC2)=C(c2cc(-c3ccc(F)cc3F)cs2)C1` [Example 42, (S)—N-((4-(((1,4-dioxan-2-yl)methyl)amino)-3-nitrophenyl)sulfonyl)-2-((1H-pyrrolo[2,3-b]pyridin-5-yl)oxy)-4-(4-((2-(4-(2,4-difluorophenyl)thiophen-2-yl)-4,4-dimethylcyclohex-1-en-1-yl)methyl)piperazin-1-yl)benzamide], the figures for the IC50 in assay [1], in assay [2] and in assay [3] were 38.7 nM, 480 nM and 26 nM, respectively.
For `CC1(C)CCC(CN2CCN(c3ccc(C(=O)NS(=O)(=O)c4ccc(NC[C@H]5CC[C@](C)(O)CC5)c([N+](=O)[O-])c4)c(Oc4cnc5[nH]ccc5c4)c3)CC2)=C(c2cc(-c3ccc(F)cc3F)cs2)C1` [Example 43, 2-((1H-pyrrolo[2,3-b]pyridin-5-yl)oxy)-4-(4-((2-(4-(2,4-difluorophenyl)thiophen-2-yl)-4,4-dimethylcyclohex-1-en-1-yl)methyl)piperazin-1-yl)-N-((4-((((1r,4r)-4-hydroxy-4-methylcyclohexyl)methyl)amino)-3-nitrophenyl)sulfonyl)benzamide], in that order: 21.1 nM, 280 nM and 8 nM.
On the same counts, the results for `CC1(C)CCC(CN2CCN(c3ccc(C(=O)NS(=O)(=O)c4ccc(NC[C@H]5COCCO5)c([N+](=O)[O-])c4)c(Oc4cnc5[nH]ccc5c4)c3)CC2)=C(c2cc(-c3ccc(Cl)cc3F)cs2)C1` [Example 44, (S)—N-((4-(((1,4-dioxan-2-yl)methyl)amino)-3-nitrophenyl)sulfonyl)-2-((1H-pyrrolo[2,3-b]pyridin-5-yl)oxy)-4-(4-((2-(4-(4-chloro-2-fluorophenyl)thiophen-2-yl)-4,4-dimethylcyclohex-1-en-1-yl)methyl)piperazin-1-yl)benzamide] are 31 nM, 830 nM and 31 nM.
